From US20250129103A1, “METHODS FOR TREATMENT OF CANCER” (Frontier Medicines Corporation, priority 2022, published 2025)
Converted amounts (≈) assume the structure as drawn.

Tests used:
[1] = Determination of kinetic solubility (pH 7.4); format: physicochemical; details: phosphate buffer, pH 7.4, aqueous buffer, kinetic from dmso stock, 50 mM phosphate buffer pH 7.4, read-out: Ksol, pH 7.4
In short: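 Solubility taken from filtrate peak areas on a calibration curve (HPLC-UV, LC-MS/MS). Before filtration and centrifugation, compound was shaken for 2 h at room temperature in pH 7.4 50 mM phosphate buffer.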

[2] = Determination of logD (1-octanol / phosphate buffer pH 7.4); format: physicochemical; details: 1-octanol/phosphate buffer, pH 7.4, pH 7.4, 1-octanol/phosphate buffer; read-out: Log D, pH 7.4
In short: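 Each phase analysed by LCMS after 1 h shaking at 800 rpm and centrifugation, room temperature. Phases were mutually saturated 1-octanol and 100 mM phosphate buffer at pH 7.4. LogD derived from the phase concentrations.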

[3] = biological target: KRAS G12C (GMPPNP-loaded) and PI3Ka (Ras-binding domain) interaction (Homo sapiens (Human), UniProt P01116, C118S/C51S/C80L/G12C); assay: Inhibition of KRAS G12C and PI3Ka binding (AlphaScreen); details: KRAS G12C loaded with GMPPNP, PI3Ka RBD, 2 hours preincubation; read-out: PI3K RBD K-Ras IC50
KRAS G12C (GMPPNP-loaded) and PI3Ka (Ras-binding domain) interaction, sequence (P01116 other isoform, or with tags, fused parts or gaps G12C/C51S/C80L/C118S): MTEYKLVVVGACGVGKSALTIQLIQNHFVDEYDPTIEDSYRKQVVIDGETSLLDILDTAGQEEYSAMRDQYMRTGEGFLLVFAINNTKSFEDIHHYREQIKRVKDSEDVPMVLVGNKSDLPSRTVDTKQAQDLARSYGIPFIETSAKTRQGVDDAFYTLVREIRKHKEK
In short: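 Biotin-AviTag Cys-light KRAS G12C (aa 1-169, C51S/C80L/C118S), GMPPNP-loaded, 1.5 nM, preincubated 2 h with compound, then His-tagged PI3Ka RBD (aa 157-300, 100 nM) plus AlphaScreen beads added for 60-90 min, RT. Buffer Hepes pH 7.4, 10 μM GMPPNP, 2% DMSO; 10-point 1:3 from 50 μM; 4-parameter IC50.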

[4] = biological target: KRAS G12C (GMPPNP-loaded) and cRAF (Ras-binding domain) interaction (Homo sapiens (Human), UniProt P01116, C118S/C51S/C80L/G12C); assay: Inhibition of KRAS G12C and cRAF binding (AlphaScreen); details: KRAS G12C loaded with GMPPNP, cRaf RBD, 2 hours preincubation; read-out: Raf-1 RBD K-Ras IC50
KRAS G12C (GMPPNP-loaded) and cRAF (Ras-binding domain) interaction, sequence (P01116 other isoform, or with tags, fused parts or gaps G12C/C51S/C80L/C118S): as above
In short: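 AlphaScreen readout (680 nm excitation, 570 nm emission) of RBD binding after a 60-90 min bead step at room temperature. This step follows 2 h compound exposure of GMPPNP-preloaded KRAS G12C in Hepes pH 7.4 buffer with MgCl2 and 10 μM GMPPNP.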

Structure (SMILES): C[C@H]1CN(C/C=C/C(=O)N2CCN(c3nc(OC[C@@]45CCCN4C[C@H](F)C5)nc4c(F)c(-c5cccc6cccc(Cl)c56)ncc34)C[C@@H]2CC#N)C[C@H](C)O1 [Compound 188]
- solubility kinetic at 2 h [1]: 79.1 µg/mL (≈ 103 µM)
- logD [2]: 3.86
- IC50 [3]: < 10 nM
- IC50 [4]: < 10 nM

Structure (SMILES): N#CC[C@H]1CN(c2nc(OC[C@@]34CCCN3C[C@H](F)C4)nc3c(F)c(-c4cccc5cccc(Cl)c45)ncc23)CCN1C(=O)/C=C/CN1C2COCC1C2 [Compound 189]
- solubility kinetic at 2 h [1]: 109 µg/mL (≈ 144 µM)
- logD [2]: 2.96
- IC50 [3]: < 10 nM
- IC50 [4]: < 10 nM

Structure (SMILES): CO[C@H]1CCN(C/C=C/C(=O)N2CCN(c3nc(OC[C@@]45CCCN4C[C@H](F)C5)nc4c(F)c(-c5cccc6cccc(Cl)c56)ncc34)C[C@@H]2CC#N)C1 [Compound 190]
- solubility kinetic at 2 h [1]: 94.7 µg/mL (≈ 125 µM)
- logD [2]: 2.86
- IC50 [3]: < 10 nM
- IC50 [4]: < 10 nM

Structure (SMILES): CO[C@@H]1CCN(C/C=C/C(=O)N2CCN(c3nc(OC[C@@]45CCCN4C[C@H](F)C5)nc4c(F)c(-c5cccc6cccc(Cl)c56)ncc34)C[C@@H]2CC#N)C1 [Compound 191]
- solubility kinetic at 2 h [1]: 94.9 µg/mL (≈ 125 µM)
- logD [2]: 3.18
- IC50 [3]: < 10 nM
- IC50 [4]: < 10 nM

Structure (SMILES): Cc1nsc(/C=C/C(=O)N2CCN(c3nc(OC[C@@]45CCCN4C[C@H](F)C5)nc4c3C[C@@H](C)[C@H](c3nc(N)cc(C)c3C(F)(F)F)C4)C[C@@H]2CC#N)n1 [Compound 192]
- solubility kinetic at 2 h [1]: 2.01 µg/mL (≈ 2.66 µM)
- logD [2]: 4.69
- IC50 [3]: < 10 nM
- IC50 [4]: < 10 nM

Structure (SMILES): Cc1nccc(/C=C/C(=O)N2CCN(c3nc(OCC45CCCN4CCC5)nc4c3CCN(c3cccc5cccc(Cl)c35)C4)C[C@@H]2CC#N)n1 [Compound 202]
- solubility kinetic at 2 h [1]: 90.2 µg/mL (≈ 128 µM)
- logD [2]: 3.38
- IC50 [3]: < 10 nM
- IC50 [4]: < 10 nM

Structure (SMILES): N#CC[C@H]1CN(c2nc(OC[C@@]34CCCN3C[C@H](F)C4)nc3c(F)c(-c4cccc5ccc(F)c(Cl)c45)ncc23)CCN1C(=O)/C=C/c1ccnc(C2CC2)n1 [Compound 208]
- solubility kinetic at 2 h [1]: 0.01 µg/mL (≈ 0.0128 µM)
- logD [2]: 4.2
- IC50 [3]: < 10 nM
- IC50 [4]: < 10 nM

Structure (SMILES): Cc1cc(/C=C/C(=O)N2CCN(c3nc(OC[C@@]45CCCN4C[C@H](F)C5)nc4c(F)c(-c5cccc6cccc(F)c56)ncc34)C[C@@H]2CC#N)nc(C)n1 [Compound 214]
- solubility kinetic at 2 h [1]: 6.14 µg/mL (≈ 8.37 µM)
- logD [2]: 4.02
- IC50 [3]: < 10 nM
- IC50 [4]: 10 to 100 nM

Structure (SMILES): Cc1nccc(/C=C/C(=O)N2CCN(c3nc(OC[C@@]45CCCN4C[C@H](F)C5)nc4c(F)c(-c5cccc6ccccc56)ncc34)C[C@@H]2CC#N)n1 [Compound 215]
- solubility kinetic at 2 h [1]: 16.5 µg/mL (≈ 23.6 µM)
- logD [2]: 2.16
- IC50 [3]: < 10 nM
- IC50 [4]: < 10 nM

Structure (SMILES): CO[C@H]1CCN(C/C=C/C(=O)N2CCN(c3nc(OC[C@@]45CCCN4C[C@H](F)C5)nc4c(F)c(-c5cccc6ccc(F)c(F)c56)ncc34)C[C@@H]2CC#N)C1 [Compound 217]
- solubility kinetic at 2 h [1]: 99.9 µg/mL (≈ 132 µM)
- logD [2]: 2.01
- IC50 [3]: < 10 nM
- IC50 [4]: < 10 nM

Structure (SMILES): N#CC[C@H]1CN(c2nc(OC[C@@]34CCCN3C[C@H](F)C4)nc3c(F)c(-c4cccc5ccc(F)c(F)c45)ncc23)CCN1C(=O)/C=C/CN1C[C@H]2C[C@@H]1CO2 [Compound 218]
- solubility kinetic at 2 h [1]: 56.4 µg/mL (≈ 74.6 µM)
- logD [2]: 2.54
- IC50 [3]: < 10 nM
- IC50 [4]: < 10 nM

Structure (SMILES): CO[C@H]1CCN(C/C=C/C(=O)N2CCN(c3nc(OC[C@@]45CCCN4C[C@H](F)C5)nc4c(F)c(-c5cccc6cccc(F)c56)ncc34)C[C@@H]2CC#N)C1 [Compound 222]
- solubility kinetic at 2 h [1]: 91.6 µg/mL (≈ 124 µM)
- logD [2]: 2.76
- IC50 [3]: < 10 nM
- IC50 [4]: < 10 nM

Structure (SMILES): N#CC[C@H]1CN(c2nc(OC[C@@]34CCCN3C[C@H](F)C4)nc3c(F)c(-c4cccc5ccc(F)c(F)c45)ncc23)CCN1C(=O)/C=C/CN1C[C@H]2COC[C@H]2C1 [Compound 223]
- solubility kinetic at 2 h [1]: 118 µg/mL (≈ 153 µM)
- logD [2]: 3
- IC50 [3]: < 10 nM
- IC50 [4]: < 10 nM

Structure (SMILES): N#CC[C@H]1CN(c2nc(OC[C@@]34CCCN3C[C@H](F)C4)nc3c(F)c(-c4cccc5ccc(F)c(F)c45)ncc23)CCN1C(=O)/C=C/CN1C2COCC1C2 [Compound 224]
- solubility kinetic at 2 h [1]: 84.6 µg/mL (≈ 112 µM)
- logD [2]: 2.96
- IC50 [3]: < 10 nM
- IC50 [4]: < 10 nM

Structure (SMILES): CCc1c(F)ccc2cccc(-c3ncc4c(N5CCN(C(=O)/C=C/CN6CCOCC6)[C@@H](CC#N)C5)nc(OC[C@@]56CCCN5C[C@H](F)C6)nc4c3F)c12 [Compound 226]
- solubility kinetic at 2 h [1]: 103 µg/mL (≈ 137 µM)
- logD [2]: 2.63
- IC50 [3]: < 10 nM
- IC50 [4]: 10 to 100 nM

Structure (SMILES): N#CC[C@H]1CN(c2nc(OC[C@@]34CCCN3C[C@H](F)C4)nc3c(F)c(-c4cccc5cccc(Cl)c45)ncc23)CCN1C(=O)/C=C/CN1C[C@H]2COC[C@H]2C1 [Compound 228]
- solubility kinetic at 2 h [1]: 94.8 µg/mL (≈ 123 µM)
- logD [2]: 3.08
- IC50 [3]: < 10 nM
- IC50 [4]: < 10 nM

Structure (SMILES): N#CC[C@H]1CN(c2nc(OC[C@@]34CCCN3C[C@H](F)C4)nc3c(F)c(-c4cccc5ccc(F)c(F)c45)ncc23)CCN1C(=O)/C=C/CN1CC2CC(C1)O2 [Compound 229]
- solubility kinetic at 2 h [1]: 69.9 µg/mL (≈ 92.3 µM)
- logD [2]: 1.63
- IC50 [3]: < 10 nM
- IC50 [4]: < 10 nM

Structure (SMILES): N#CC[C@H]1CN(c2nc(OC[C@@]34CCCN3C[C@H](F)C4)nc3c(F)c(-c4cccc5ccc(F)c(F)c45)ncc23)CCN1C(=O)/C=C/CN1CCSCC1 [Compound 238]
- solubility kinetic at 2 h [1]: 21.3 µg/mL (≈ 28 µM)
- logD [2]: 3.48
- IC50 [3]: < 10 nM
- IC50 [4]: < 10 nM

Structure (SMILES): N#CC[C@H]1CN(c2nc(OC[C@@]34CCCN3C[C@H](F)C4)nc3c(F)c(-c4cccc(Cl)c4C4CC4)ncc23)CCN1C(=O)/C=C/CN1CC2CC(C1)O2 [Compound 244]
- solubility kinetic at 2 h [1]: 121 µg/mL (≈ 163 µM)
- logD [2]: 3.13
- IC50 [3]: 10 to 100 nM
- IC50 [4]: < 10 nM

Structure (SMILES): C#Cc1c(F)ccc2cccc(-c3ncc4c(N5CCN(C(=O)/C=C/CN6CCOCC6)[C@@H](CC#N)C5)nc(OC[C@@]56CCCN5C[C@H](F)C6)nc4c3F)c12 [Compound 255]
- solubility kinetic at 2 h [1]: 118 µg/mL (≈ 158 µM)
- logD [2]: 2.81
- IC50 [3]: < 10 nM
- IC50 [4]: < 10 nM

Structure (SMILES): N#CC[C@H]1CN(c2nc(OC[C@@]34CCCN3C[C@H](F)C4)nc3c(F)c(-c4cccc(Cl)c4C4CC4)ncc23)CCN1C(=O)/C=C/CN1C[C@@H]2C[C@H]1CO2 [Compound 277]
- solubility kinetic at 2 h [1]: 91 µg/mL (≈ 122 µM)
- logD [2]: 2.85
- IC50 [3]: < 10 nM
- IC50 [4]: < 10 nM

Structure (SMILES): CN1CC[C@@H]1/C=C/C(=O)N1CCN(c2nc(OC[C@@]34CCCN3C[C@H](F)C4)nc3c(F)c(-c4cccc(Cl)c4C4CC4)ncc23)C[C@@H]1CC#N [Compound 305]
- solubility kinetic at 2 h [1]: 130 µg/mL (≈ 186 µM)
- logD [2]: 2.87
- IC50 [3]: 10 to 100 nM
- IC50 [4]: 10 to 100 nM

Structure (SMILES): Cc1cc(N)nc(C2Cc3nc(OC[C@@]45CCCN4C[C@H](F)C5)nc(N4CCN(C(=O)/C=C/CN(C)C)[C@@H](CC#N)C4)c3CC2C)c1C(F)(F)F (stereo partly shown) [Compound 315]
- solubility kinetic at 2 h [1]: 139 µg/mL (≈ 195 µM)
- logD [2]: 2.47
- IC50 [3]: < 10 nM
- IC50 [4]: < 10 nM

Structure (SMILES): COCCN(C)C/C=C/C(=O)N1CCN(c2nc(OC[C@@]34CCCN3C[C@H](F)C4)nc3c(F)c(-c4cccc5cccc(Cl)c45)ncc23)C[C@@H]1CC#N [Compound 320]
- solubility kinetic at 2 h [1]: 104 µg/mL (≈ 139 µM)
- logD [2]: 3.05
- IC50 [3]: < 10 nM
- IC50 [4]: < 10 nM

Structure (SMILES): Cc1cc(N)nc([C@@H]2Cc3nc(OC[C@@]45CCCN4C[C@H](F)C5)nc(N4CCN(C(=O)/C=C/CN(C)C)[C@@H](CC#N)C4)c3C[C@H]2C)c1C(F)(F)F [Compound 322]
- solubility kinetic at 2 h [1]: 133 µg/mL (≈ 186 µM)
- logD [2]: 2.79
- IC50 [3]: < 10 nM
- IC50 [4]: < 10 nM
